This is an account of results in patent publication US20040071656A1, “Modulation of heat-shock-protein-based immunotherapies” (priority 2001, published 2004).

The subject of one test is ANA1 cells. In words: Binding of biotinylated Hsp70 / Hsp70-peptide C-biotin to ANA1 macrophage cells, fluorescence microscopy. Format: cell-based, murine. The following applies: 100 nM biotinylated protein. Here is the method: Cell culture and fluorescence microscopy. The murine macrophage cell line ANA1 was kindly provided by H. Wagner (Munich, Germany). ANA-1 cells were cultured in VLE-RPMI 1640 (Biochrom), supplemented with 10% FCS, 2 mM L-glutamine and antibiotics. For fluorescence microscopy, ANA1 cells were either stimulated with LPS (20 μg/ml, Sigma, Germany), or kept in an LPS-free medium (mock treatment) for 7 h. After stimulation, cells were harvested and incubated with 100 nM biotinylated Hsp70, biotinylated GST, or Hsp70/peptide C-biotin complex for 30 min at 0° C. in VLE-RPMI 1640. After incubation cells were processed for staining with streptavidin-TRITC (Sigma, Germany), fixed with paraformaldehyde and analyzed by fluorescence microscopy (Axiovert 35, Zeiss) as described (Sondermann et al., 2000). […] Twenty-four h post-transfection cells were incubated with 250 nM biotinylated Hsp70, biotinylated GST or Hsp70/peptide C-biotin complex for 30 min at 0° C. in DMEM, fixed, stained with streptavidin-TRITC (Sigma, Germany), and analyzed by fluorescence microscopy as described (Sondermann et al., 2000, idem). […] Stably transfected cell lines were analyzed by immunoblotting for CD40 expression using an anti-CD40 antibody (CSA180, Stressgen). […]
Details for FIG. 1. […] After 30 min at 4° C. cells were washed, incubated with TRITC-labeled streptavidin, washed again, and processed for fluorescence microscopy. […]

Another test addresses T1, human CD40 (Homo sapiens, UniProt P25942).
T1 construct: CD40 full-length cDNA was cloned by PCR; expressed in transfected cells
In words: Uptake of peptide C-FITC in HEK293T-CD40 cells, confocal microscopy. In kind it is cell-based. The following applies: 0.5 μM protein, 5 μM peptide C-FITC, ADP, 30 min 0° C. then 15 min 37° C. Here is the method: For experiments to study uptake of Hsp70/peptide C-FITC complex, HEK293T-CD40 and HEK293T-MCAT cells were seeded on collagen-coated cover slips 24 h prior to the experiment. For complex formation Hsp70, its N-terminal domain (N70) or its C-terminal domain (C70) were preincubated with a 10-fold molar excess of peptide C-FITC for 30 min at 37° C., as described above for the biotinylated proteins. HEK293T-CD40 and HEK293T-MCAT were incubated with 0.5 μM of Hsp70, N70 or C70, preincubated with 2 mM ADP and 5 μM peptide C-FITC, or 5 μM peptide C-FITC alone for 30 min on ice. Thereafter the cells were washed three times with medium, incubated for 15 min at 37° C., and fixed, embedded in Fluoromount-G and analyzed by confocal microscopy (LSM 510, Zeiss).
Next, the binding of Hsp70-peptide complex to CD40 was studied, which results in the uptake of peptide. To this end, HEK293T-CD40 cells and HE293T-MCAT cells (not expressing CD40) were incubated with a fluorescent (FITC) derivative of peptide C for 30 min at 0° C. in the presence of ADP, with or without Hsp70 or its two domains. After removal of excess material, the cells were incubated at 37° C. for 15 min, fixed and then analyzed by fluorescence microscopy. […] (FIG. 6B, panel 1). […] Neither did HEK293T-MCAT control cells give rise to a signal under any of the conditions tested (not shown). We conclude that the specific interaction of CD40 with Hsp70-peptide complex mediates the uptake of peptide.
Details for FIG. 6. Binding of Hsp70 complex to CD40-expressing HEK293T cells induces signaling via p38 and causes peptide uptake. A. HEK293T-cells, stably transfected with cDNA encoding human CD40 or the unrelated membrane protein murine cationic amino acid transporter (MCAT) were incubated for 20 min at 37° C. with CD40L or with Hsp70, C70, N70, bacterial DnaK either in the presence of ADP or AMPPNP, or buffer alone. Thereafter cells were washed, solubilized in SDS-sample buffer, and analyzed by immunoblotting with antibodies directed against phosphorylated (active) p38. Blots were also developed with an antibody against tubulin in order to control for equal loading. B. Cells were incubated at 0° C. for 30 min with recombinant human Hsp70, N70, or C70, all in the presence FITC-labeled peptide, or with the FITC-labeled peptide alone. Thereafter cells were washed, incubated for 15 min at 37° C., and processed for fluorescence microscopy. Upper left panel: Hsp70, upper right panel: FITC-labeled peptide alone, lower left panel: C70, lower right panel: N70. Only cells stably transfected with CD40 are shown. Cell boundaries are emphasized with broken lines.

T1 sequence (P25942 21-277): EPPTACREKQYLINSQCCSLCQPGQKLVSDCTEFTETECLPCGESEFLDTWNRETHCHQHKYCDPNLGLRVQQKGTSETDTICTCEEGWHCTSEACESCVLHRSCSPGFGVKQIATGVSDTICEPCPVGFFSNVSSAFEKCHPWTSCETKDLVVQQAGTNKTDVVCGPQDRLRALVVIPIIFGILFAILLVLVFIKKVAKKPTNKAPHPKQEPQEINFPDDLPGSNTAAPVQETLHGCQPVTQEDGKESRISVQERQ

In the case of “Hsp70: Recombinant human heat shock protein 70, expressed and purified as His-tagged protein”, in the test with ANA1 cells (LPS 20 μg/ml 7 h), the “binding to LPS-stimulated ANA-1 cells” value is recorded as “significant increase in binding”. The “binding to unstimulated ANA-1 cells” value in the test with ANA1 cells (mock treated cells, 30 min, streptavidin-TRITC) was “weak but clearly detectable binding”. In the test with human CD40, the “uptake of fluorescent (FITC) peptide C into HEK293T-CD40 cells” value is listed as “fluorescent peptide was observed in punctuate intracellular structures only in cells expressing CD40”.

“N70: Recombinant N-terminal ATPase domain of human Hsp70, residues 5-381 (SEQ ID NO: 1)”: in the test with human CD40, the “uptake of fluorescent (FITC) peptide C into HEK293T-CD40 cells” value is “did not result in a peptide signal above background”.
